Test results from ChEMBL document CHEMBL1201862, “PubChem BioAssay data set” (2004).
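All cell lines were grown in 96-well plates and treated with compound for 48 hours. GI50 is the concentration that inhibits growth by half.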 Activity calls are given as the source filed them. No stated cut-off is given here; in the data, active = GI50 up to about 1.1 µM and inactive = higher.

How the values were obtained:
Experiment in all cases: NCI anticancer screen, dose series, 48 h
[1] = test system: K562
[2] = test system: OVCAR-3
[3] = test system: SNB-75
[4] = test system: IGROV-1
[5] = test system: OVCAR-8
[6] = test system: Malme-3M
[7] = test system: M14
[8] = test system: HL-60
[9] = test system: OVCAR-4
[10] = test system: A549
[11] = test system: SNB-78
[12] = test system: DMS-114
[13] = test system: HCT-15
[14] = test system: UACC-62
[15] = test system: NCI/ADR-RES
[16] = test system: KM-20L2
[17] = test system: HOP-62
[18] = test system: OVCAR-5

O=C(NN1C(=O)C(Cl)C1c1cccc(O)c1)c1ccccc1O (configuration not stated)
GI50 [1]: > 100 µM (inactive) | GI50 [2]: > 100 µM (inactive) | GI50 [3]: > 100 µM (inactive) | GI50 [4]: > 100 µM (inactive) | GI50 [5]: > 100 µM (inactive) | GI50 [6]: > 100 µM (inactive) | GI50 [7]: > 100 µM (inactive) | GI50 [8]: > 100 µM (inactive) | GI50 [9]: > 100 µM (inactive) | GI50 [10]: > 100 µM (inactive) | GI50 [11]: > 100 µM (inactive) | GI50 [12]: > 100 µM (inactive) | GI50 [13]: > 100 µM | GI50 [14]: > 100 µM (inactive)

CCN(CC)CCNC(=O)C1COc2ccc(-c3cc(=O)c4ccccc4o3)cc2O1 (configuration not stated)
GI50 [1]: 16 µM (inactive) | GI50 [2]: 21.2 µM (inactive) | GI50 [3]: 17.2 µM (inactive) | GI50 [4]: 28.9 µM (inactive) | GI50 [5]: 16.7 µM (inactive) | GI50 [6]: 16 µM (inactive) | GI50 [15]: 19.2 µM (inactive) | GI50 [16]: 17.5 µM (inactive) | GI50 [17]: 21.4 µM (inactive) | GI50 [8]: 13.2 µM (inactive) | GI50 [9]: 18.5 µM (inactive) | GI50 [10]: 23.6 µM (inactive) | GI50 [11]: 10.1 µM (inactive) | GI50 [18]: 22.3 µM (inactive) | GI50 [13]: 15.5 µM | GI50 [14]: 17.6 µM (inactive)

CC1=C(O)C(=O)C2C(=O)C1C(C)C2c1ccc(C)cc1 (configuration not stated)
GI50 [1]: > 100 µM (inactive) | GI50 [2]: > 100 µM (inactive) | GI50 [3]: 98.9 µM (inactive) | GI50 [4]: > 100 µM (inactive) | GI50 [5]: > 100 µM (inactive) | GI50 [6]: > 100 µM (inactive) | GI50 [16]: 3.06 µM (inactive) | GI50 [7]: > 100 µM (inactive) | GI50 [17]: > 100 µM (inactive) | GI50 [9]: > 100 µM (inactive) | GI50 [10]: > 100 µM (inactive) | GI50 [11]: > 100 µM (inactive) | GI50 [18]: > 100 µM (inactive) | GI50 [13]: > 100 µM | GI50 [14]: > 100 µM (inactive)

O=c1[nH]c2cc(-c3ccccc3)nc-2nn1-c1c(Cl)cc(Cl)cc1Cl
GI50 [1]: 41.1 µM (inactive) | GI50 [2]: 23.2 µM (inactive) | GI50 [4]: 38.5 µM (inactive) | GI50 [5]: 37.4 µM (inactive) | GI50 [6]: 24.4 µM (inactive) | GI50 [16]: 25.8 µM (inactive) | GI50 [7]: 23.9 µM (inactive) | GI50 [17]: 25.5 µM (inactive) | GI50 [8]: 20.5 µM (inactive) | GI50 [10]: 37.6 µM (inactive) | GI50 [11]: 37.5 µM (inactive) | GI50 [18]: 39.4 µM (inactive) | GI50 [12]: > 100 µM (inactive) | GI50 [13]: 36 µM | GI50 [14]: 17.5 µM (inactive)

C[C@]12CC[C@H](OC(=O)Nc3ccccc3)CC1=CC[C@@H]1C2CC[C@]2(C)/C(=N/OC(=O)Nc3ccccc3)CCC12 (some centres not stated)
GI50 [1]: 2.21 µM (inactive) | GI50 [2]: > 100 µM (inactive) | GI50 [3]: 5.5 µM (inactive) | GI50 [4]: 4.19 µM (inactive) | GI50 [5]: 22.3 µM (inactive) | GI50 [6]: 1.72 µM (inactive) | GI50 [16]: 3.2 µM (inactive) | GI50 [7]: 12.5 µM (inactive) | GI50 [8]: 5.82 µM (inactive) | GI50 [9]: 5.66 µM (inactive) | GI50 [10]: 7.85 µM (inactive) | GI50 [11]: > 100 µM (inactive) | GI50 [18]: 70.5 µM (inactive) | GI50 [12]: 2.71 µM (inactive) | GI50 [13]: 1.77 µM | GI50 [14]: > 100 µM (inactive)

C=CCNC(=O)N(CCCC(NC(C)=O)C(=O)NCc1ccccc1)Cc1ccccc1 (configuration not stated)
GI50 [1]: > 100 µM (inactive) | GI50 [2]: > 100 µM (inactive) | GI50 [3]: > 100 µM (inactive) | GI50 [4]: > 100 µM (inactive) | GI50 [5]: > 100 µM (inactive) | GI50 [6]: > 100 µM (inactive) | GI50 [16]: > 100 µM (inactive) | GI50 [7]: > 100 µM (inactive) | GI50 [17]: > 100 µM (inactive) | GI50 [8]: > 100 µM (inactive) | GI50 [9]: > 100 µM (inactive) | GI50 [10]: > 100 µM (inactive) | GI50 [18]: > 100 µM (inactive) | GI50 [12]: > 100 µM (inactive) | GI50 [13]: > 100 µM | GI50 [14]: > 100 µM (inactive)

CC(C)C1N2CCCCC2[C@@H]2c3[nH]c4ccccc4c3CCN12 (some centres not stated)
GI50 [1]: > 100 µM (inactive) | GI50 [2]: > 100 µM (inactive) | GI50 [3]: > 100 µM (inactive) | GI50 [4]: > 100 µM (inactive) | GI50 [5]: > 100 µM (inactive) | GI50 [16]: > 100 µM (inactive) | GI50 [7]: > 100 µM (inactive) | GI50 [17]: > 100 µM (inactive) | GI50 [8]: > 100 µM (inactive) | GI50 [9]: > 100 µM (inactive) | GI50 [10]: > 100 µM (inactive) | GI50 [11]: > 100 µM (inactive) | GI50 [18]: > 100 µM (inactive) | GI50 [12]: > 100 µM (inactive) | GI50 [13]: > 100 µM | GI50 [14]: > 100 µM (inactive)

COc1cc2c(cc1OC)C(Cl)C(c1ccc(Cl)c(Cl)c1)=C2Cl (configuration not stated)
GI50 [1]: 3.22 µM (inactive) | GI50 [2]: 4.18 µM (inactive) | GI50 [3]: 8.79 µM (inactive) | GI50 [4]: 10.7 µM (inactive) | GI50 [5]: 6.62 µM (inactive) | GI50 [6]: 12.6 µM (inactive) | GI50 [16]: 8.71 µM (inactive) | GI50 [7]: 9.4 µM (inactive) | GI50 [8]: 2.47 µM (inactive) | GI50 [11]: 5.56 µM (inactive) | GI50 [12]: 3.42 µM (inactive) | GI50 [13]: 3.33 µM | GI50 [14]: 4.37 µM (inactive)

CC(=O)NC(CCCCN(Cc1ccccc1)C(=O)N(C)N=O)C(=O)NCc1ccccc1 (configuration not stated)
GI50 [1]: 61 µM (inactive) | GI50 [2]: > 100 µM (inactive) | GI50 [3]: 31.9 µM (inactive) | GI50 [4]: > 100 µM (inactive) | GI50 [5]: > 100 µM (inactive) | GI50 [6]: 82 µM (inactive) | GI50 [16]: > 100 µM (inactive) | GI50 [7]: > 100 µM (inactive) | GI50 [17]: > 100 µM (inactive) | GI50 [9]: 62.2 µM (inactive) | GI50 [10]: 95.9 µM (inactive) | GI50 [11]: > 100 µM (inactive) | GI50 [18]: > 100 µM (inactive) | GI50 [12]: 43.6 µM (inactive) | GI50 [13]: > 100 µM | GI50 [14]: > 100 µM (inactive)
